According to ChEMBL document CHEMBL1909046, “DrugMatrix in vitro pharmacology data”:

How the values were obtained:
[1] = target: 5-hydroxytryptamine receptor 4 (Cavia porcellus, UniProt O70528); format: cell membranes, Dunkin-Hartley, Striatum, Membrane; further: in other assays of this panel Not Active means under 50% inhibition at 10 µM
[2] = target: T1, Neuropeptide Y receptor type 1 (Homo sapiens, UniProt P25929); format: cell membranes, Membrane; settings: sk-n-mc; further: in other assays of this panel Not Active means under 50% inhibition at 10 µM
T1 sequence (P25929 whole entry): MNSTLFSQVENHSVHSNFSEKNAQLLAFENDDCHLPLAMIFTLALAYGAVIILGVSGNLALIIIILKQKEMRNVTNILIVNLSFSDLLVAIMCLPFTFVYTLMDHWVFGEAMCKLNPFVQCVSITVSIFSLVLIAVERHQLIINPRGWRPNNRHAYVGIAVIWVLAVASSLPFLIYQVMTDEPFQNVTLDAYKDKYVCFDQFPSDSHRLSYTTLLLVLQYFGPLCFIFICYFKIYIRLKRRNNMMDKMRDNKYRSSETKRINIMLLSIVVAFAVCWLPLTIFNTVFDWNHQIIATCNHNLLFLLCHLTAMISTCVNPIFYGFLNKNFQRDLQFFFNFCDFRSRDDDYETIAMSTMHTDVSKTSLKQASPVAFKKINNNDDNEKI

Adenosine receptor A1 = target: T2, Adenosine receptor A1 (Homo sapiens, UniProt P30542); format: cell membranes, Membrane; settings: cho;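 further: radioligand binding assay at the adenosine A1 receptor, with DPCPX serving as the labelled ligand; in other assays of this panel Not Active means under 50% inhibition at 10 µM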
T2 sequence (P30542 whole entry): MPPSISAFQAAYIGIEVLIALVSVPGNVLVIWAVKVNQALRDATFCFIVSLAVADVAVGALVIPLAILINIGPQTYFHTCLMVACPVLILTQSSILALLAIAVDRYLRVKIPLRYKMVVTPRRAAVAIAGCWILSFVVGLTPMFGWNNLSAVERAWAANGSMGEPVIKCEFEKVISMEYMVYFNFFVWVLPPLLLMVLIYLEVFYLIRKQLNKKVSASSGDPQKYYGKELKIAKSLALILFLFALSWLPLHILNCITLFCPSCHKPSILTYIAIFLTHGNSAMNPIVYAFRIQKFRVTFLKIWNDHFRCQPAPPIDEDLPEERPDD

[3] = DRUGMATRIX: ATPase, Na+/K+ enzyme inhibition (substrate: ATP); format: tissue-based, Sus scrofa, Heart; settings: Not Active = under 50% inhibition at 10 µM
[4] = target: Tyrosine-protein kinase Lck (Homo sapiens, UniProt P06239); assay: DRUGMATRIX: Protein Tyrosine Kinase, LCK enzyme inhibition (substrate: Poly(Glu:Tyr)); format: cell-based, Insect cells; settings: insect cells; Not Active = under 50% inhibition at 10 µM
Melanocortin receptor 5 = Melanocortin receptor 5 (Homo sapiens, UniProt P33032); format: cell membranes, Membrane; settings: hek293; further: in other assays of this panel Not Active means under 50% inhibition at 10 µM
[5] = target: Beta-1 adrenergic receptor (Homo sapiens, UniProt P08588); assay: DRUGMATRIX: Adrenergic beta1 radioligand binding (ligand: [125I] Cyanopindolol); format: cell membranes, CHO-K1, Membrane; settings: cho-k1; Not Active = under 50% inhibition at 10 µM
Chain of Beta-1 adrenergic receptor (P08588 whole entry): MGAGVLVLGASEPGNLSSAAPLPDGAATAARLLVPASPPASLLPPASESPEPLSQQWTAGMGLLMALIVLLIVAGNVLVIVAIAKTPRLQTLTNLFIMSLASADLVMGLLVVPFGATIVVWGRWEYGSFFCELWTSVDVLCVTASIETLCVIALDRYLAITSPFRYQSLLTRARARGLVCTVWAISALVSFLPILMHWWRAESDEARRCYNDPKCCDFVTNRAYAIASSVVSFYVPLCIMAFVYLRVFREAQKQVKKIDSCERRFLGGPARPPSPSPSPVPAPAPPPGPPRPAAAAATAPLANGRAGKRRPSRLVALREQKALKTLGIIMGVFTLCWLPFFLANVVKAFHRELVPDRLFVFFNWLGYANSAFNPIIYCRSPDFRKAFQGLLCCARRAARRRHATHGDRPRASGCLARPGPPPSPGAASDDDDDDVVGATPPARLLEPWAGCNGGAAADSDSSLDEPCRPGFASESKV

Chain of Tyrosine-protein kinase Lck (P06239 whole entry): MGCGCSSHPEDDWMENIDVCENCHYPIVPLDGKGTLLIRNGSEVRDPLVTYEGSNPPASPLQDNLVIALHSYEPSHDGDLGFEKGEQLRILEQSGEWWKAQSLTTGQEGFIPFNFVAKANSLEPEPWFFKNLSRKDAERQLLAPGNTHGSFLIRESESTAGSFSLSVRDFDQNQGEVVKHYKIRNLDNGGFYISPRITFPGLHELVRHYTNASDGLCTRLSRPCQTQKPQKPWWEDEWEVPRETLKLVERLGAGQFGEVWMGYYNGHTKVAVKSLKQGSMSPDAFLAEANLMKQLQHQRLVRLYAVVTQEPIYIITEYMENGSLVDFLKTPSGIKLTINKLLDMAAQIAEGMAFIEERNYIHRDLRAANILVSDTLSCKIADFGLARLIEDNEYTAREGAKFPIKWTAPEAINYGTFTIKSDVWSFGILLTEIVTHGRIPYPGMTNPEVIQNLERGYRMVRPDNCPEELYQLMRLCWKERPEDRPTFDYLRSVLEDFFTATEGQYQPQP
Chain of Melanocortin receptor 5 (P33032 whole entry): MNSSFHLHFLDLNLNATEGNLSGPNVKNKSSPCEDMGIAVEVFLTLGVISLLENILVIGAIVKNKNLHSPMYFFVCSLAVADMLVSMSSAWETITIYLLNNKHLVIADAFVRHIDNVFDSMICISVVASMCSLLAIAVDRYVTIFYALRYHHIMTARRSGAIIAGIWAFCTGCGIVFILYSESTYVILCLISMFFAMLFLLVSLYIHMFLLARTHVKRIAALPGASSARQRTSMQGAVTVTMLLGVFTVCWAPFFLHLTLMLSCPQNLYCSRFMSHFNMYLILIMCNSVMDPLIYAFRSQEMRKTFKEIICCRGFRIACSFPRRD
Chain of 5-hydroxytryptamine receptor 4 (O70528 whole entry): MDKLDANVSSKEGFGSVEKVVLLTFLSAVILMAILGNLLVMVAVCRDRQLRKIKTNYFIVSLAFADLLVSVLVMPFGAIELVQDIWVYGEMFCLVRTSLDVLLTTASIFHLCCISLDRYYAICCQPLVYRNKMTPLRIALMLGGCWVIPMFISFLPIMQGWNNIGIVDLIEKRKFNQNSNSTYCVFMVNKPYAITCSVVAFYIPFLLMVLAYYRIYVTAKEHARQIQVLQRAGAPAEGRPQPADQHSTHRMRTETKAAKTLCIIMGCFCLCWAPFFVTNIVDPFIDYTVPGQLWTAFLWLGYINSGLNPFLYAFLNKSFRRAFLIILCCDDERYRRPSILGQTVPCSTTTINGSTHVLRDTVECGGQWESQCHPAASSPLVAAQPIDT

COc1ccc2[nH]c([S+]([O-])Cc3ncc(C)c(OC)c3C)nc2c1 (stereo not given) [OMEPRAZOLE]
Not Active: IC50 [1] | IC50 [2] | IC50 (Adenosine receptor A1) | IC50 [3] | Ki [3] | IC50 [4] | IC50 (Melanocortin receptor 5) | IC50 [5]

Cc1nccn1CC1CCc2c(c3ccccc3n2C)C1=O (stereo not given) [ONDANSETRON]
Not Active: IC50 [1] | IC50 [2] | IC50 (Adenosine receptor A1) | IC50 [3] | Ki [3] | IC50 [4] | IC50 (Melanocortin receptor 5) | IC50 [5]

CCn1cc(C(=O)O)c(=O)c2cc(F)c(N3CCN(C)CC3)cc21 [PEFLOXACIN]
Not Active: IC50 [1] | IC50 [2] | IC50 (Adenosine receptor A1) | IC50 [3] | Ki [3] | IC50 [4] | IC50 (Melanocortin receptor 5) | IC50 [5]

CCCCOc1ccc(OCCCN2CCOCC2)cc1 [PRAMOXINE]
Not Active: IC50 [1] | IC50 [2] | IC50 (Adenosine receptor A1) | IC50 [3] | Ki [3] | IC50 [4] | IC50 (Melanocortin receptor 5) | IC50 [5]

O=C(C1CCCCC1)N1CC(=O)N2CCc3ccccc3C2C1 (stereo not given) [PRAZIQUANTEL]
Not Active: IC50 [1] | IC50 [2] | IC50 (Adenosine receptor A1) | IC50 [3] | Ki [3] | IC50 [4] | IC50 (Melanocortin receptor 5) | IC50 [5]

CCN(CC)CCOC(=O)c1ccc(N)cc1 [PROCAINE]
Not Active: IC50 [1] | IC50 [2] | IC50 (Adenosine receptor A1) | IC50 [3] | Ki [3] | IC50 [4] | IC50 (Melanocortin receptor 5) | IC50 [5]

CCCN(CCC)C(=O)C(CCC(=O)O)NC(=O)c1ccccc1 (stereo not given) [PROGLUMIDE]
Not Active: IC50 [1] | IC50 [2] | IC50 (Adenosine receptor A1) | IC50 [3] | Ki [3] | IC50 [4] | IC50 (Melanocortin receptor 5) | IC50 [5]

NC(=O)c1cnccn1 [PYRAZINAMIDE]
Not Active: IC50 [1] | IC50 [2] | IC50 (Adenosine receptor A1) | IC50 [3] | Ki [3] | IC50 [4] | IC50 (Melanocortin receptor 5) | IC50 [5]

OC(CCN1CCCCC1)(c1ccccc1)C1CCCCC1 (stereo not given) [TRIHEXYPHENIDYL]
Not Active: IC50 [1] | IC50 [2] | IC50 (Adenosine receptor A1) | IC50 [3] | Ki [3] | IC50 [4] | IC50 (Melanocortin receptor 5) | IC50 [5]

Cc1cc2cc3c(C)cc(=O)oc3c(C)c2o1 [TRIOXSALEN]
Not Active: IC50 [1] | IC50 [2] | IC50 (Adenosine receptor A1) | IC50 [3] | Ki [3] | IC50 [4] | IC50 (Melanocortin receptor 5) | IC50 [5]

CCCC(CCC)C(=O)O [VALPROIC ACID]
Not Active: IC50 [1] | IC50 [2] | IC50 (Adenosine receptor A1) | IC50 [3] | Ki [3] | IC50 [4] | IC50 (Melanocortin receptor 5) | IC50 [5]

CCC1=C[C@@H]2CN(C1)Cc1c([nH]c3ccccc13)[C@@](C(=O)OC)(c1cc3c(cc1OC)N(C)[C@H]1[C@@](O)(C(=O)OC)[C@H](OC(C)=O)[C@]4(CC)C=CCN5CC[C@]31[C@@H]54)C2 [VINORELBINE]
Not Active: IC50 [1] | IC50 [2] | IC50 (Adenosine receptor A1) | IC50 [3] | Ki [3] | IC50 [4] | IC50 (Melanocortin receptor 5) | IC50 [5]

CADMIUM DICHLORIDE
Not Active: IC50 [1] | Ki [1] | IC50 [2] | Ki [2] | IC50 (Adenosine receptor A1) | Ki (Adenosine receptor A1) | IC50 [3] | Ki [3] | IC50 [4] | Ki [4] | IC50 (Melanocortin receptor 5) | Ki (Melanocortin receptor 5) | IC50 [5] | Ki [5]
